Measured values taken from patent publication US20250313562A1, “Substituted tricyclic ligands for FK506-binding proteins for treatment of diseases” (Technische Universität Darmstadt, priority 2024, published 2025).

Experiments:
[1] = molecular target: T1, FKBP51 (Homo sapiens, UniProt Q13451); test: competitive fluorescence polarization assay, FKBP51; format: binding
T1 sequence (Q13451 1-457): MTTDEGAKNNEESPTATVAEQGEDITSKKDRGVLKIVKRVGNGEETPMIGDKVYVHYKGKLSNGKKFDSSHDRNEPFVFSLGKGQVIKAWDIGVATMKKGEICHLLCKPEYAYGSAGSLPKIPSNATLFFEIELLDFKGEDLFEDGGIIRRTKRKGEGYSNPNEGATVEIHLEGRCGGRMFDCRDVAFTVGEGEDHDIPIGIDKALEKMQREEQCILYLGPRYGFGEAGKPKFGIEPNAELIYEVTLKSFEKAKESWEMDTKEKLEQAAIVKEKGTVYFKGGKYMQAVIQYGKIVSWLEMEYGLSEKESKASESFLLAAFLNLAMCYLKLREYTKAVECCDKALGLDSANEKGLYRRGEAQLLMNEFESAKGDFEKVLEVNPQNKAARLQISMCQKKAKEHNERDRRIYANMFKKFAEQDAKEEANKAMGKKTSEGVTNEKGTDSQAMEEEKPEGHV
Description: (§1) Affinity determination by competitive fluorescence polarization assay. The synthesized tricyclic sulfonamides were tested for their binding affinities to human FKBPs (FKBP12 and FKBP51) by the fluorescence polarization assay (Table 1).

[2] = molecular target: T2, FKBP12 (Homo sapiens, UniProt P62942); test: nanoBRET assay, intracellular FKBP12 occupancy in HEK293T cells; format: cell-based; settings: for IC50: intracellular occupancy
T2 sequence (P62942 whole entry): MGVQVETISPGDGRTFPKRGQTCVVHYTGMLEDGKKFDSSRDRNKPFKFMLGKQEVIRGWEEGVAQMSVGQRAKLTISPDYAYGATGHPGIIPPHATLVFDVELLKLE
Description: (§2) For compounds 31 and 32 target engagement of FKBP12 and FKBP51 in the HEK293T cells was tested (Table 2).

[3] = molecular target: T2, FKBP12; test: competitive fluorescence polarization assay, FKBP12; format: binding
Description: as §1

[4] = molecular target: T1, FKBP51; test: nanoBRET assay, intracellular FKBP51 occupancy in HEK293T cells; format: cell-based; settings: for IC50: intracellular occupancy; for displacement of the tracer for FKBP51 (potency in words): nanoBRET
Description: as §2

SMILES | Ki [1] [nM] | IC50 [2] [nM] | Ki [3] [nM] | IC50 [4] [nM] | displacement of the tracer for FKBP51 (potency in words) [4] | competition with the tracer for FKBP12 (potency in words) ([2]; nanoBRET)
CCNC(=O)[C@@H]1CC[C@H]2[C@H](CO)C3CCCC(C(=O)N12)N3S(=O)(=O)c1cc(Cl)cc(Cl)c1 (stereo in doubt) [Compound 31] | 0.76 ± 0.2 | 3.9 ± 0.3 | 0.013 ± 0.004 | 8.5 ± 0.6 | low nanomolar potency | –
C=C[C@@H]1C2CCCC(C(=O)N3[C@H](C(=O)OC)CC[C@@H]13)N2S(=O)(=O)c1cc(Cl)cc(Cl)c1 (stereo partly drawn) [Compound 20] | 76 ± 10 | – | 1 ± 0.1 | – | – | –
CC1CCN(C(=O)[C@@H]2CC[C@H]3[C@H](CO)C4CCCC(C(=O)N23)N4S(=O)(=O)c2cc(Cl)cc(Cl)c2)CC1 (stereo in doubt) [Compound 32] | 0.72 ± 0.2 | 0.49 ± 0.04 | 0.019 ± 0.007 | 3.3 ± 0.3 | low nanomolar potency | subnanomolar potency
C=C[C@@H]1C2CCCC(C(=O)N3[C@H](C(=O)N(C)C)CC[C@@H]13)N2S(=O)(=O)c1cc(Cl)cc(Cl)c1 (stereo partly drawn) [Compound 23] | 121 ± 8 | – | 2.3 ± 0.2 | – | – | –
C=C[C@H]1[C@@H]2CC[C@@H](c3ccccn3)N2C(=O)C2CCC[C@@H]1N2S(=O)(=O)c1cc(Cl)cc(Cl)c1 [Compound 30] | 464 ± 79 | – | 12 ± 1.6 | – | – | –
C=C[C@@H]1C2CCCC(C(=O)N3[C@H](C(=O)N4CCC(C)CC4)CC[C@@H]13)N2S(=O)(=O)c1cc(Cl)cc(Cl)c1 (stereo partly drawn) [Compound 25] | 0.93 ± 0.2 | – | 0.067 ± 0.01 | – | – | –
C=C[C@@H]1C2CCCC(C(=O)N3[C@H](C(=O)NCC)CC[C@@H]13)N2S(=O)(=O)c1cc(Cl)cc(Cl)c1 (stereo partly drawn) [Compound 24] | 1.1 ± 0.4 | – | 0.043 ± 0.01 | – | – | –
C=C[C@@H]1C2CCCC(C(=O)N3[C@H](C(=O)N4CCN(C)CC4)CC[C@@H]13)N2S(=O)(=O)c1cc(Cl)cc(Cl)c1 (stereo partly drawn) [Compound 26] | 11 ± 0.7 | – | 0.16 ± 0.018 | – | – | –
C=C[C@@H]1C2CCCC(C(=O)N3[C@H](C(=O)O)CC[C@@H]13)N2S(=O)(=O)c1cc(Cl)cc(Cl)c1 (stereo partly drawn) [Compound 3] | 698 ± 49 | – | 12 ± 1.7 | – | – | –
C=C[C@@H]1C2CCCC(C(=O)N3[C@H](C(=O)N4C[C@@H]5C[C@H]4CN5)CC[C@@H]13)N2S(=O)(=O)c1cc(Cl)cc(Cl)c1 [Compound 28] | 52 ± 6 | – | 0.72 ± 0.1 | – | – | –
C=C[C@@H]1C2CCCC(C(=O)N3[C@H](C(=O)N4C[C@@H]5C[C@H]4CN5C)CC[C@@H]13)N2S(=O)(=O)c1cc(Cl)cc(Cl)c1 [Compound 27] | 17 ± 1.7 | – | 0.55 ± 0.07 | – | – | –
C=C[C@@H]1C2CCCC(C(=O)N3[C@H](C(=O)NC)CC[C@@H]13)N2S(=O)(=O)c1cc(Cl)cc(Cl)c1 (stereo partly drawn) [Compound 22] | 7.7 ± 0.9 | – | 0.32 ± 0.04 | – | – | –
C=C[C@@H]1C2CCCC(C(=O)N3[C@H](C(N)=O)CC[C@@H]13)N2S(=O)(=O)c1cc(Cl)cc(Cl)c1 (stereo partly drawn) [Compound 21] | 18 ± 3 | – | 0.48 ± 0.08 | – | – | –
